From PubChem BioAssay AID248 (DTP/NCI, 2004)
Several values for one entry are separate records, joined by “and”; a condition that tells them apart may be missing. Identical values can stand only once. Toxic doses and inconclusive results are not listed. Rule as the data show it: active = T/C of 150% or more; inactive = T/C below 125%.

System: L1210 leukemia ip in BDF1 mice, survival T/C
Assay: NCI In Vivo Anticancer Drug Screen. Data for tumor model L1210 Leukemia (intraperitoneal) in B6D2F1 (BDF1) mice
Conditions: endpoint: mean survival time, higher = longer survival
Outline: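 Each compound was tested against a transplantable tumor grown in mice. The endpoint was survival, with treated animals benchmarked against vehicle controls as a simple ratio.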

[1] = dose: 100.0 mg/kg/injection, schedule: Q01DX009 (ip), vehicle: saline with Tween-80
[2] = dose: 200.0 mg/kg/injection, schedule: Q01DX009 (ip), vehicle: saline with Tween-80
[3] = dose: 400.0 mg/kg/injection, schedule: Q01DX009 (ip), vehicle: saline with Tween-80
[4] = dose: 100.0 mg/kg/injection, schedule: Q01DX009 (ip), vehicle: Klucel (hydroxypropylcellulose) (HPC)
[5] = dose: 200.0 mg/kg/injection, schedule: Q01DX009 (ip), vehicle: Klucel (hydroxypropylcellulose) (HPC)
[6] = dose: 100.0 mg/kg/injection, schedule: Q04DX003 (ip), vehicle: saline with Tween-80
[7] = dose: 200.0 mg/kg/injection, schedule: Q04DX003 (ip), vehicle: saline with Tween-80

Measured: T/C

CCOC(=O)OCCc1ccccc1
inactive: dose: 100.0 mg/kg/injection, schedule: Q01DX001 (ip), vehicle: carboxymethylcellulose (CMC) 106 % of control | dose: 100.0 mg/kg/injection, schedule: Q01DX009 (ip), vehicle: carboxymethylcellulose (CMC) 103 % of control and 92 % of control | dose: 100.0 mg/kg/injection, schedule: Q04DX002 (ip), vehicle: carboxymethylcellulose (CMC) 97 % of control and 109 % of control | dose: 100.0 mg/kg/injection, schedule: Q04DX003 (ip), vehicle: carboxymethylcellulose (CMC) 98 % of control | dose: 200.0 mg/kg/injection, schedule: Q01DX001 (ip), vehicle: carboxymethylcellulose (CMC) 100 % of control | dose: 200.0 mg/kg/injection, schedule: Q01DX009 (ip), vehicle: carboxymethylcellulose (CMC) 95 % of control and 103 % of control | dose: 200.0 mg/kg/injection, schedule: Q04DX002 (ip), vehicle: carboxymethylcellulose (CMC) 98 % of control and 100 % of control | dose: 200.0 mg/kg/injection, schedule: Q04DX003 (ip), vehicle: carboxymethylcellulose (CMC) 98 % of control | dose: 400.0 mg/kg/injection, schedule: Q01DX001 (ip), vehicle: carboxymethylcellulose (CMC) 105 % of control | dose: 400.0 mg/kg/injection, schedule: Q01DX009 (ip), vehicle: carboxymethylcellulose (CMC) 93 % of control and 98 % of control | dose: 400.0 mg/kg/injection, schedule: Q04DX002 (ip), vehicle: carboxymethylcellulose (CMC) 97 % of control and 106 % of control | dose: 400.0 mg/kg/injection, schedule: Q04DX003 (ip), vehicle: carboxymethylcellulose (CMC) 102 % of control

Nc1ncnc2c1nc(N)n2C1OC(CO)C(O)C1O (centres undefined)
inactive: dose: 100.0 mg/kg/injection, schedule: Q01DX001 (ip), vehicle: saline 115 % of control and 104 % of control | dose: 200.0 mg/kg/injection, schedule: Q01DX001 (ip), vehicle: saline 123 % of control and 104 % of control | dose: 400.0 mg/kg/injection, schedule: Q01DX001 (ip), vehicle: saline 98 % of control

COC(=O)c1ccc(-c2cc(Cl)c3cc(S(=O)(=O)F)ccc3n2)cc1
inactive: [1] 94 % of control | [2] 100 % of control | [3] 95 % of control

COc1cc(OC)cc(C(=O)Cl)c1
inactive: [1] 100 % of control | [2] 103 % of control | [3] 86 % of control

CC1(C)C=C(C(Br)c2ccc(Cl)cc2)C(=O)c2ccccc21 (centres undefined)
inactive: dose: 50.0 mg/kg/injection, schedule: Q01DX009 (ip), vehicle: Klucel (hydroxypropylcellulose) (HPC) 110 % of control | [4] 105 % of control | dose: 100.0 mg/kg/injection, schedule: Q04DX003 (ip), vehicle: Klucel (hydroxypropylcellulose) (HPC) 95 % of control | [5] 100 % of control | dose: 200.0 mg/kg/injection, schedule: Q04DX003 (ip), vehicle: Klucel (hydroxypropylcellulose) (HPC) 92 % of control

CCOC(=O)c1cnc(SC)nc1Nc1ccccc1Cl
inactive: [6] 87 % of control | [7] 87 % of control

O=C1NC(=O)C(c2ccccc2)C1=O (centres undefined)
inactive: dose: 50.0 mg/kg/injection, schedule: Q01DX Z (ip), vehicle: other 105 % of control | dose: 100.0 mg/kg/injection, schedule: Q01DX Z (ip), vehicle: other 96 % of control | dose: 200.0 mg/kg/injection, schedule: Q01DX Z (ip), vehicle: other 91 % of control | dose: 400.0 mg/kg/injection, schedule: Q01DX Z (ip), vehicle: other 89 % of control

CCOC(=O)CNC(=O)Nc1ccc(C(=O)OCC)cc1
inactive: [1] 98 % of control | [2] 92 % of control

O=C(O)/C(=C\CCC/C=C(\CCO)C(=O)O)CCO
inactive: dose: 100.0 mg/kg/injection, schedule: Q01DX001 (ip), vehicle: DMSO 100 % of control | dose: 100.0 mg/kg/injection, schedule: Q01DX009 (ip), vehicle: DMSO 99 % of control | dose: 200.0 mg/kg/injection, schedule: Q01DX001 (ip), vehicle: DMSO 97 % of control | dose: 200.0 mg/kg/injection, schedule: Q01DX009 (ip), vehicle: DMSO 99 % of control | dose: 400.0 mg/kg/injection, schedule: Q01DX001 (ip), vehicle: DMSO 102 % of control | dose: 400.0 mg/kg/injection, schedule: Q01DX009 (ip), vehicle: DMSO 91 % of control

Nc1cccc2ccc3ccc4ccccc4c3c12
inactive: dose: 100.0 mg/kg/injection, schedule: Q01DX001 (ip), vehicle: Klucel (hydroxypropylcellulose) (HPC) 105 % of control | dose: 200.0 mg/kg/injection, schedule: Q01DX001 (ip), vehicle: Klucel (hydroxypropylcellulose) (HPC) 94 % of control | dose: 400.0 mg/kg/injection, schedule: Q01DX001 (ip), vehicle: Klucel (hydroxypropylcellulose) (HPC) 97 % of control

O=C(Nc1ccc(F)c([N+](=O)[O-])c1)N(Cc1ccccc1)c1ccccc1
inactive: [4] 101 % of control | [5] 104 % of control | dose: 400.0 mg/kg/injection, schedule: Q01DX009 (ip), vehicle: Klucel (hydroxypropylcellulose) (HPC) 98 % of control

CCCOC(=O)Nc1cccc(OC(=O)NC)c1
inactive: [6] 105 % of control | [7] 94 % of control | dose: 400.0 mg/kg/injection, schedule: Q04DX003 (ip), vehicle: saline with Tween-80 96 % of control
